Source: patent US5776927A, “Methionine sulfone and S-substituted cysteine sulfone derivatives as enzyme inhibitors” (Corvas International, Inc., priority 1994, dated 1998)

Columns and labels:
citrated human plasma = assay: Ex vivo anticoagulant effect, activated partial thromboplastin time (APTT), human plasma; settings: citrated pooled normal human plasma; control clotting time 28.3 sec set to 1.0
Method: (§1) The ex vivo anticoagulant effects of BzlSO2 -Met(SO2)-Pro-Arg-al was determined by measuring the prolongation of the activated partial thromboplastin time (APTT) over a broad concentration range of the added inhibitor, using pooled normal human and rat plasma. Fresh frozen citrated pooled normal human plasma was obtained from George King Biomedical, Overland Park, Kans. Pooled normal rat plasma was prepared from citrated whole blood collected from anesthetized rats using standard procedures. The plasma was flash frozen and stored at -80° C. until use. Measurements APTT was made using the Coag-A-Mate RA4 automated coagulometer (General Diagnostics, Organon Technica, Oklahoma City, Okla.) using the Automated APTT reagent (Organon Technica, Durham, N.C.) as the initiator of clotting according to the manufacturers instructions.
(§2) The assay was conducted by making a series of dilutions of the test compounds in rapidly thawed plasma followed by adding 200 microliters to the wells of the assay carousel.

[1] = test system: thrombotic occlusion of the rat carotid artery; assay: Rat model of FeCl3-induced platelet-dependent arterial thrombosis; assay type: in vivo, rat (male Harlan Sprague Dawley); settings: i.v. bolus
From the text: Kurz, K. D., Main, B. W., and Sandusky, G. E., Thromb. […] In this model a platelet-rich, occlusive thrombus is formed in a segment of the rat carotid artery treated locally with a fresh solution of FeCl3 absorbed to a piece of filter paper. The FeCl3 is thought to diffuse into the treated segment of artery and causes de-endothelialization of the affected vessel surface. […] The effect of a test compound on the incidence of occlusive thrombus formation following the application of the FeCl3 is monitored by ultrasonic flowtometry and is used as the primary end point. The use of flowtometry to measure carotid artery blood flow, is a modification of the original procedure in which thermal detection of clot formation was employed. Kurz, K. D., Main, B. W., and Sandusky, G. E., Thromb. […] Male Harlan Sprague Dawley rats (420-450 g) were acclimated at least 72 hours prior to use and fasted for 12 hours prior to surgery with free access to water. […] Blood pressure, blood flow, heart rate, and respiration were monitored for 60 minutes. The incidence of occlusion (defined as the attainment of zero blood flow) was recorded as the primary end point. […] This allows a direct comparison of the antithrombotic efficacy of BzlSO2 -[…] with other antithrombotic agents which have also been evaluated in this model as described above.

citrated rat plasma = assay: Ex vivo anticoagulant effect, activated partial thromboplastin time (APTT), rat plasma; settings: control clotting time 19.75 sec set to 1.0
Method: as §1, §2

Q: How did the “prolongation of the APTT” value (citrated human plasma) turn out when `CS(=O)(=O)CC[C@H](NS(=O)(=O)Cc1ccccc1)C(=O)N1CCC[C@H]1C(=O)N[C@H](C=O)CCCNC(=N)N` [Example 27, N-benzylsulfonyl-L-methionine sulfone-L-proline-L-argininal] was run?
A: prolonged the APTT in a dose dependent manner in both rat and human plasma

Q: What about the “efficacy in preventing thrombus formation (result in words)” value [1] of the same compound?
A: reduction in the incidence of thrombotic occlusion

Q: And the “prolongation of the APTT” value (citrated rat plasma)?
A: prolonged the APTT in a dose dependent manner in both rat and human plasma
